We go through one compound from US20180071280A1, “MODULATORS OF CELL DEATH PROCESSES” (URIFER LTD., priority 2015, published 2018).

In one data set the test system is SW620 cells. Description: TEM analysis of mitochondria in SW620 cells. In kind it is cell-based, human. On the procedure:
Cells were grown in MEM or DMEM, washed twice with PBS and fixed for 5 minutes in Karnovsky fixative (2.5% glutaraldehyde, 2.5% paraformaldehyde in cacodylate buffer pH 7.4) on the tissue culture plate. Cells were then harvested, and transferred to 1.5 ml tube for further 1 h fixation at room temperature. The cells were then stored O.N at 4C° after which the samples were washed in 0.1 M cacodylate buffer and post-fixed with 1% OsO4 in 0.1 M sodium cacodylate buffer (Sigma-Aldrich, Israel) for 1 h. Samples were then dehydrated in alcohol and propylene oxide followed by embedding in Agar Mix. Thin sections (60 nm) were cut, stained with uranyl acetate and lead citrate, and observed in a FEI Tecnai transmission electron microscope.

The subject of data set [1] is Hfb. Nature of the data set: Mitochondrial membrane potential (TMRE) in normal human cells. The data set is classed as cell-based. On the procedure: For microscopic and ELISA based analyses of cells MMP, Tetra-Methyl-Rhodamine-Ethyl ester (TMRE) incorporation assay was carried out according to the manufacturer's instructions (Abcam, USA).
Data set [2] in a line: Toxicological and histopathological studies in mice. The data set is classed as in vivo. The procedure:
All animal experiments were performed according to the guidelines of the Institutional Animal Care and Use Committee of the Bar-Ilan University. Nude mice (Harlan, Israel) were transferred from ad libitum diet to a more strict diet 2 days before inoculation to lower blood glucose levels, and housed one per cage to ensure an even consumption of food. The diet was comprised of 3 g/mouse/day of standard chow, given at the same time every day. The food was consumed within an average time of 2 hours, consequently the mice were kept without food for the next 22 hours until the daily ration. The mice were kept on this diet throughout the experiment. Mice were inoculated with 1.5×10^6 SW620 CC cells and divided randomly into respective experimental groups. In brief, cells were harvested, counted under the microscope, concentrated by centrifugation (5 min at 500G) and re-suspended in Hank's balanced salt solution (Biological Industries, Israel). Before inoculation the cell suspension was mixed with Martial (BD biosciences, USA) in 1:1 ratio. Four days post-inoculation mice were randomized and placed in cages (n=4 per cage). Mice were injected intra-peritonealy every 12 h for 22 days with 25 mg/kg or 50 mg/kg of the micellar and non-micellar 0260 formulations, and control mice—with empty micelles or vehicles. Mice were sacrificed at day 22, tissues from relevant organs were fixed in paraffin, sectioned (7 μm sections) and stained with Hematoxylin and Eosin stain (H&E stain) for future histopathological evaluation. Blood samples were drawn from sacrificed mice.
Mice were sacrificed at day 22 of the xenograft experiments, as described above. Tissues from relevant organs and tumors were fixed in paraffin, sectioned (7 μm sections) and stained with Hematoxylin and Eosin stain (H&E stain) for histopathological evaluation as previously described. Blood samples were drawn by cardiac puncture. […] The serum was analyzed immediately using the Cobas 6000-501 chemistry analyzer (Roche Diagnostics, USA) according to the manufacturer's protocols for each assay.

In another data set the test system is mice sperm cells. Nature of the data set: Sperm cell motility assay (CASA). The data set is classed as cell-based. Conditions: 2 μM. The procedure:
For isolation of spermatogenic cells, mice testes were removed from out-bred (ICR) mice and digested in Isolation Medium (DMEM with 2 mM glutamine, 1.5 mM sodium pyruvate, 10% fetal calf serum, 25 μg/ml ampicillin and 1× non-essential amino acids) with added 2 mg/ml collagenase (Sigma-Aldrich) for 5 min at 37° C., and washed twice. Extracellular DNA and proteins were removed with 1 unit/ml DNAse and 0.3 ml 0.5% trypsin at 37° C. for 5 min. Cells were filtered through a nylon mesh with 50 μm pores and incubated in Isolation Medium with 0260 or control for 24 h, and examined under the microscope. Mouse mature caudal spermatozoa were obtained by dissecting the cauda epididymis of male ICR mice and puncturing them in a dish containing 3 ml PBS to enable sperm release out of the epididymal tissue. The sperm suspension was filtered through a nylon mesh with 50 μm pores, centrifuged at 1000×g for 5 min and re-suspended in a buffer compatible with the experimental procedure.
Sperm cell motility was evaluated using the Computer-Aided Sperm Analysis (CASA). Samples (5 μl) were placed in standard count four chamber slide (Leja, Nieuw-Vennet, Netherlands) and analyzed by CASA device with IVOS software (version 12, Hamilton-Thorne Biosciences), acquiring up to ten sequels, 10 s long, for each sample, using parameters identifying mouse sperm motility. The proportion of hyper-activated ([…]) spermatozoa in each sample was determined using the SORT function of the CASA instrument. HAM was defined by curvilinear velocity (VCL)>90 μm/s, linearity (LIN) b20% and an amplitude of lateral head (ALH)>7 μm.

In data set [3] the test system is Hfb. Description: Cellular ATP level (HPLC) in Hfb. The data set is classed as cell-based, human. The settings on record: 12 hours. The procedure:
Quantification of intracellular ATP was carried out using HPLC as previously described.
Cells were suspended in 400 μl cold 0.4M perchloric acid solution, incubated on ice for 15 min, centrifuged at 12,000×g, neutralized with 4M K2CO3 to pH 7.5, incubated for 15 min on ice and concentrated (10,000×g). Chromatographic analyses were performed using Hitachi Elite LaChrom system at 30° C. applying supernatants to SUPELCOSIL™ LC-18-S HPLC Column (5 μm particle size, L×I.D. 25 cm×2.1 mm), flow rate 0.2 mL/min under isocratic elution conditions (50 mM potassium phosphate, 100 mM triethylamine, pH 6.5 (adjusted with phosphoric acid)):Acetonitrile (98.5:1.5)). Each analysis cycle was set to 30 min, chromatographic flow was monitored at 260 nm and integrated using EZChrom Elite Software.

For data set [4], the system named is AMPK-mTOR signaling pathway. Description: WB of AMPK-mTOR signaling pathway phosphorylation in CC cells. The data set is classed as cell-based, human. The procedure: WB analyses were carried out as previously described before. In brief, cells were lysed in RIPA buffer mixed with protease inhibitors and separated on SDS-PAGE gel, transferred to PVDF membrane treated with 5% skim milk to exclude non-specific background and incubated with a primary antibody over-night. The membrane was incubated for 1 h with a secondary antibody conjugated to Horseradish Peroxidase (HRP). The protein-antibody complex was visualized using the SuperSignal West Pico Chemiluminescent Substrate (Thermo scientific, USA).

Structures are written as SMILES. Counter-ions that a name gives are not always drawn.

Consider `CC(C)c1ccc(-c2cn3nc(N4CCC(CN5CCN(C)CC5)CC4)sc3n2)cc1` [compound 0260, tartarate salt of 6-(4-isopropyl-phenyl)-2-{4-[(4-methyl-piperazin-1-yl)methyl]piperidin-1-yl}-imidazo [2,1-b][1,3,4]thiadiazole], for which, in the data set with SW620 cells (16 h), the “mitochondria morphology (TEM)” value was “deformation and loss of the normal elongated shape of mitochondria”. Also, the “mitochondria morphology (TEM)” value with SW620 cells (24 h) is “the mitochondria underwent lysis”. In addition, in the data set with SW620 cells (24 h, high glucose conditions), the “mitochondria morphology (TEM)” value was “mitochondrial damage was still observed”. Further, the “Mitochondrial Membrane Potential (MMP) depolarization” value with Hfb [1] is reported as “absent”. In addition, the “toxic effects (blood markers of liver and kidney functions, blood electrolytes)” value in data set [2] (daily injection) is on record as “did not cause any toxic effects or adverse side effects”. Also, in data set [2] (mouse, in vivo), the “histopathology of heart, kidneys and liver” value was “failed to detect any abnormalities related to toxicity”. Further, the “effect on animal's weight” value in data set [2] (xenograft experiments) is on record as “no significant effect”. In addition, the “percentage of sperm cells exhibiting progressive motility” value in the data set with mice sperm cells (5 min) is “significantly decreased”. In addition, in the data set with mice sperm cells (30 min), the progressive motility result is on record as “practically reduced to zero” and the total motility result was “practically reduced to zero”. Also, the “effect on cellular ATP level” value in the data set with Hfb [3] is given as “not seen”. In addition, in data set [4], the AMPK phosphorylation result is “phosphorylated and activated”; the Akt phosphorylation result is “decrease in the activating phosphorylation”; the “Raptor phosphorylation on serines 792 and 722” value was “inhibitory phosphorylation”; the mTOR phosphorylation state entry is “not changed”.
